“Also recorded” adds a separate entry of the source.
Tests used:
phzA2-G2 = experiment: lacZ transcriptional fusion, phzA2-G2 operon; format: cell-based, Pseudomonas aeruginosa; conditions: late exponential phase
Method: (§1) P. aeruginosa harbors two identically structured operons in its genome, which encode most of the enzymes responsible for PYO synthesis (phzA1-G1 and phzA2-G2) but have slightly different regulatory regions 1. lacZ transcriptional fusions for each operon were assayed at mid-log and late exponential phases (OD=1 and 3, respectively). At mid-log cultures, the expression of both QS-regulated operons is extremely low, and it increases more than 1000-fold at late exponential phase for phzA1-G1 and 4-fold for phzA2-G2, as expected. Addition of compounds 2 and 4 had no effect for both operons in the late […]
(§2) synthesis is not related to inhibition at the transcriptional level.
(§3) Figure 7S: Effect of LDT10 (2) and LDT13 (3) on the phzA1-G1 (A) and phzA2-G2 […]
(§4) (1 picture or pasted object on this page, not shown here)

human PPAR isoforms = system: human PPAR isoforms; design: method as in Sahin et al. 2022 (likely, number not given); conditions: previously investigated; ref Sahin et al. 2022 (likely, number not given); cited from earlier work
[1] = system: P. aeruginosa cells (ATCC 27853); experiment: Screening of PYO production inhibitors (supernatant absorbance 691 nm); format: cell-based, Pseudomonas aeruginosa; conditions: 100 μM
Method: P. aeruginosa cells (ATCC 27853) were inoculated by depletion on King’s A agar, and the plates were incubated at 30 °C for 24 h. Isolated colonies were collected and resuspended in sterile saline solution (0.85%) until turbidity equivalent to optical density (OD) at 600 nm, equal to 0.3 (1.5 × 10^8 CFU/mL). This bacterial suspension was diluted 10-fold and used to inoculate King’s A broth.
(§5) The potential inhibitors, previously solubilized in DMSO, were added to the culture medium after the inoculation (final concentration = 100 μM). The control group was cultured in the presence of an equivalent volume of DMSO but without the presence of potential inhibitors. The cell suspension was maintained at 30 °C under constant agitation (180 rpm) for 24 h in a 24-well plate. After this period, the OD600 was measured to evaluate bacterial growth, and in parallel, after being subjected to centrifugation, the supernatant was read in a 96-well plate at a wavelength of 691 nm. The sterile medium used for culturing the microorganism was used as a positive control, and culture medium containing 1% DMSO was used as a negative control.

P. aeruginosa = experiment: Colony morphology in medium containing compounds; format: cell-based, Pseudomonas aeruginosa; conditions: data not shown
phzA1-G1 = experiment: lacZ transcriptional fusion, phzA1-G1 operon; format: cell-based, Pseudomonas aeruginosa; conditions: late exponential phase
Method: as §1, §2, §3, §4

[2] = system: P. aeruginosa cells (ATCC 27853); experiment: Bacterial growth (OD600) in the PYO screening culture; format: cell-based, Pseudomonas aeruginosa; conditions: 100 μM
Method: as §5

P. aeruginosa PA14 = experiment: Swarming assay; format: cell-based, Pseudomonas aeruginosa; conditions: 100 μM
Method: Swarming assays were performed as described, using 6-well plates. Briefly, 3 μL of culture (OD600 = 3.0) was inoculated in the center of modified M9 (20 mM NH4Cl; 12 mM Na2HPO4; 22 mM KH2PO4; 8.6 mM NaCl; 1 mM MgSO4; 1 mM CaCl2 2 H2O; 11 mM glucose; 0.5% casamino acids (Difco)) with 0.5% of Bacto-agar (Difco), containing the respective compounds (100 μM final concentration, diluted in DMSO). Plates were incubated inside plastic bags to avoid evaporation at 30 °C for 16 h. After this period, pictures were taken, and the area covered by the colonies was measured using ImageJ. All assays were performed with four replicates, and 0.1% DMSO (v/v) was employed as a negative control.

PaPhzD = biological target: T1, PaPhzD (Pseudomonas aeruginosa, UniProt P0DPB9); experiment: Thermal shift assay (TSA) with SYPRO Orange; format: binding
T1 construct: inferred from Ni-NTA purification with imidazole elution; made in house; host or cells: E. coli BL21(DE3)
Method: Thermal shift assays were performed on an Applied Biosystems 7500 RT-PCR (Applied Biosystems, Foster City, CA USA). All experiments were carried out in triplicate with 1 °C per minute increments in temperatures that range from 25 to 85 °C in 96-well PCR plates (PCR plates 96-well, BioRad), sealed with transparent capping strips (Flatcap strips, BioRad). The fluorescence of SYPRO Orange (Invitrogen S6650) was monitored (excitation wavelength, 492 nm; emission wavelength, 610 nm). Before the compounds’ screening, protein and DMSO concentrations were evaluated to improve PaPhzD stability throughout the assay.
The protein concentration required for an optimal signal-to-noise ratio (>5-fold) was evaluated by analysis of the raw fluorescence curves at different PaPhzD concentrations (1–5 μM). Then, the effect of DMSO (0–10%) over PaPhzD T m was evaluated at the optimal protein concentration. Fluorescence raw data were recorded using Applied Biosystems 7500 Software v2.0 and then processed with NAMI software to calculate T m values by the first-derivative method.
LDT compounds were screened at a final concentration of 50 μM. Briefly, 1 μL of each compound (1 mM DMSO stock solution) was added to a mixed solution containing 5 μM PaPhzD diluted in 50 mM Tris–HCl buffer (pH 8.0) containing 100 mM NaCl, 1 mM DTT, and SYPRO Orange dye (Invitrogen S6650) (1:100 dilution). Each compound was assayed in triplicate, and ΔT m values were calculated by comparison to reference wells that had 1 μL DMSO instead of the LDT compounds. Differences between T m values (ΔT m) were considered statistically significant when p < 0.01, according to the one-way ANOVA followed by Dunnett’s post-test for multiple comparisons, available in GraphPad Prism 9.0 software (GraphPad Software, San Diego, CA, USA, www.graphpad.com).
Compounds with ΔT m values statistically different from the reference were also assayed at different concentrations (ranging from 6.25 to 100 μM) to evaluate the concentration–response behavior. The ΔT m versus concentration plots were generated using the nonlinear regression method available in GraphPad Prism version 9.0.

T1 sequence (P0DPB9 whole entry): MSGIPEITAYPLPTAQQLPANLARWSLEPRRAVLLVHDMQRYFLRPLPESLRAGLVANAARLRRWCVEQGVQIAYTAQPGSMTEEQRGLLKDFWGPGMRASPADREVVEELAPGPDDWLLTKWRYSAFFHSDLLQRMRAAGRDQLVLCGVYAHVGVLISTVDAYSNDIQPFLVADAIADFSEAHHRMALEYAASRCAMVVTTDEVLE

## CCCCCCCCCCCCCCCc1cccc(O)c1 [Compound 2]
phzA2-G2
  Effect on phzA2-G2 transcription: no effect
Human PPAR isoforms
  PPAR activity profile: do not activate PPAR receptors
[1]; 24 h, 30 °C
  Pyocyanin production, Cohen's d vs control: −2.56
[1]; vs DMSO control
  Effect on pyocyanin production: decreased pyocyanin production
P. aeruginosa
  Effect on colony morphology: No effects on colony morphology
phzA1-G1
  Effect on phzA1-G1 transcription: no effect
[2]
  Effect on bacterial growth: without affecting bacterial growth; also recorded: no significant effect on bacterial growth
P. aeruginosa PA14
  Swarming motility, % compared to control conditions: 65%
  Swarming motility, Cohen's d vs control: −0.91
PaPhzD; 50 μM compound, 5 μM PaPhzD, vs DMSO reference
  ΔTm of PaPhzD: −3.8 °C
PaPhzD; 6.25 to 100 μM
  Concentration–response behavior of ΔTm: clear concentration–response behavior

— paper PMC12756723, “Derivatives of the Cashew Nut Shell Liquid as Ligands of Pseudomonas aeruginosa Phenazine Protein D (PaPhzD)” (ACS Omega, 2025)
